Test results from patent US12343326B2, “Psychoactive medicines and their use for treating psychiatric and neurological conditions and disorders” (Transcend Therapeutics, Inc., priority 2021, dated 2025).

Columns and labels:
Assay in all cases: β-arrestin based GPCR screen (PathHunter / GPCRmax), agonist mode
Type in all cases: cell-based
Parameters in all cases: host or cells: PathHunter cell lines
168 GPCRs [1] = molecular target: 168 GPCRs (Homo sapiens, UniProt O14842)
Description: (§1) For agonist determination, cells were incubated with sample to induce response. […] Vehicle concentration was 1%.

168 GPCRs [2] = molecular target: 168 GPCRs (Homo sapiens, UniProt P07550); details: ADRB2, Agonist
Description: as §1

168 GPCRs [3] = molecular target: 168 GPCRs (Homo sapiens, UniProt P08908); details: HTR1A
Description: as §1

168 GPCRs [4] = molecular target: 168 GPCRs (Homo sapiens, UniProt P16473); details: TSHR(L)
Description: as §1

168 GPCRs [5] = molecular target: 168 GPCRs (Homo sapiens, UniProt P18825); details: ADRA2C, Agonist
Description: as §1

168 GPCRs [6] = molecular target: 168 GPCRs (Homo sapiens, UniProt P21917)
Description: as §1

168 GPCRs [7] = molecular target: 168 GPCRs (Homo sapiens, UniProt P25025)
Description: as §1

168 GPCRs [8] = molecular target: 168 GPCRs (Homo sapiens, UniProt P25103)
Description: as §1

168 GPCRs [9] = molecular target: 168 GPCRs (Homo sapiens, UniProt P25106)
Description: as §1

168 GPCRs [10] = molecular target: 168 GPCRs (Homo sapiens, UniProt P32238); details: CCKAR, Agonist
Description: as §1

168 GPCRs [11] = molecular target: 168 GPCRs (Homo sapiens, UniProt P32241)
Description: as §1

168 GPCRs [12] = molecular target: 168 GPCRs (Homo sapiens, UniProt P34981); details: TRHR
Description: as §1

168 GPCRs [13] = molecular target: 168 GPCRs (Homo sapiens, UniProt P35367)
Description: as §1

168 GPCRs [14] = molecular target: 168 GPCRs (Homo sapiens, UniProt P35462)
Description: as §1

168 GPCRs [15] = molecular target: 168 GPCRs (Homo sapiens, UniProt P41597); details: CCR2, Agonist
Description: as §1

168 GPCRs [16] = molecular target: 168 GPCRs (Homo sapiens, UniProt P47211)
Description: as §1

168 GPCRs [17] = molecular target: 168 GPCRs (Homo sapiens, UniProt P47900)
Description: as §1

168 GPCRs [18] = molecular target: 168 GPCRs (Homo sapiens, UniProt P48146)
Description: as §1

168 GPCRs [19] = molecular target: 168 GPCRs (Homo sapiens, UniProt Q8NFJ6)
Description: as §1

168 GPCRs [20] = molecular target: 168 GPCRs (Homo sapiens, UniProt Q8TDS4); details: GPR109A
Description: as §1

168 GPCRs [21] = molecular target: 168 GPCRs (Homo sapiens, UniProt Q99788); details: CMKLR1, Agonist
Description: as §1

168 GPCRs [22] = molecular target: 168 GPCRs (Homo sapiens, UniProt Q9H3N8)
Description: as §1

168 GPCRs [23] = molecular target: 168 GPCRs (Homo sapiens, UniProt Q9HBW0)
Description: as §1

168 GPCRs (Homo sapiens, UniProt P35462), sequence (P35462 whole entry): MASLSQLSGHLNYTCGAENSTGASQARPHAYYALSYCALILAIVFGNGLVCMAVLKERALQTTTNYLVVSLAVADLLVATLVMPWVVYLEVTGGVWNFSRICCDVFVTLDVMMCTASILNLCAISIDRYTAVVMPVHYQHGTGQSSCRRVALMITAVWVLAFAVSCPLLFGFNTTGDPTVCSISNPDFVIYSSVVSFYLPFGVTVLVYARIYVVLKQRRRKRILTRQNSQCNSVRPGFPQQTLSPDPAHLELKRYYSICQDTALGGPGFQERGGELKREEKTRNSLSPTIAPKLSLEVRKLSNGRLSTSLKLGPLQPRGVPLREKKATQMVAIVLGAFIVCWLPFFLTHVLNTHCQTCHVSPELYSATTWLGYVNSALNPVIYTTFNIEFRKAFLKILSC
168 GPCRs (Homo sapiens, UniProt P07550), sequence (P07550 whole entry): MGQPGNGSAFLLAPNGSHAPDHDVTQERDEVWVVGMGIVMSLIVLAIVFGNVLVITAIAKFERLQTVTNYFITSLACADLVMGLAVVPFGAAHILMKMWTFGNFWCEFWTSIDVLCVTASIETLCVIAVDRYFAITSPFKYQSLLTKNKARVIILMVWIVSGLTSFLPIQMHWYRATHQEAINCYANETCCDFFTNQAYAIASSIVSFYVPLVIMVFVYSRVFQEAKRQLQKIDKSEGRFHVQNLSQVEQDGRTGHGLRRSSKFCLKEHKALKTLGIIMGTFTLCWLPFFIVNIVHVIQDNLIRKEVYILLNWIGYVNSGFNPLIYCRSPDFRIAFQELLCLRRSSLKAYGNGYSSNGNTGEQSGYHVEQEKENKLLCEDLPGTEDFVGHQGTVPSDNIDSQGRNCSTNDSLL
168 GPCRs (Homo sapiens, UniProt P21917), sequence (P21917 whole entry): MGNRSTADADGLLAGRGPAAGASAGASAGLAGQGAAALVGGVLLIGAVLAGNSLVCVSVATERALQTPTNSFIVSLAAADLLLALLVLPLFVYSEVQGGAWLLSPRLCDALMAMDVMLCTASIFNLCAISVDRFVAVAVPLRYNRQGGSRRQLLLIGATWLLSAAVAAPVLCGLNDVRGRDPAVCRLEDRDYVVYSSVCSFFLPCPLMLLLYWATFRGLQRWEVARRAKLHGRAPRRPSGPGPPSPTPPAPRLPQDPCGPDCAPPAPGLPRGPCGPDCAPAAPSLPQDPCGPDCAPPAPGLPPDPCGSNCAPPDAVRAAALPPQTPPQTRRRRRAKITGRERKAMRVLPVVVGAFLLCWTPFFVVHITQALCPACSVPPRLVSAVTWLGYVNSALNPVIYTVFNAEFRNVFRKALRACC
168 GPCRs (Homo sapiens, UniProt P47900), sequence (P47900 whole entry): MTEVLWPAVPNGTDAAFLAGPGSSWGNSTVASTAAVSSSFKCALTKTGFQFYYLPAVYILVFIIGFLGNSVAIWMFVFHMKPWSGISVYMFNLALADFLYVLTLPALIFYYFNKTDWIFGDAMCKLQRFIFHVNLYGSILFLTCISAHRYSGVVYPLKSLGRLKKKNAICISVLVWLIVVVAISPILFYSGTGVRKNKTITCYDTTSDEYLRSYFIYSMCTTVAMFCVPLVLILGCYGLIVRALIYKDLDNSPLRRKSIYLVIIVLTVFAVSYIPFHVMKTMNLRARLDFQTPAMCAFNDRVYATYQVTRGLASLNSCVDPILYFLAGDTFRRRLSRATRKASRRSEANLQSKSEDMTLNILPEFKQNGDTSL
168 GPCRs (Homo sapiens, UniProt P08908), sequence (P08908 whole entry): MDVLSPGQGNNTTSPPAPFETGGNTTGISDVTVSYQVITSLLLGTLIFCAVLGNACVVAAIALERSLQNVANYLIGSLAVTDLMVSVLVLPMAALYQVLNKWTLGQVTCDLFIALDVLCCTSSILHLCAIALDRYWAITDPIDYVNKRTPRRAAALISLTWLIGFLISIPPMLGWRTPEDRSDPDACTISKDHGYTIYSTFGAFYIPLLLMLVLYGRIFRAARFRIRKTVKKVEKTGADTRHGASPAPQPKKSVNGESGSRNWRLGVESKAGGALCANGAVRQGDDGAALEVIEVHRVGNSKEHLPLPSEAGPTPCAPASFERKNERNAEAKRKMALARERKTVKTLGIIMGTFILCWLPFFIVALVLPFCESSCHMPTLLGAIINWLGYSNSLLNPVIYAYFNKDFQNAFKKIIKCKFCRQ
168 GPCRs (Homo sapiens, UniProt P32241), sequence (P32241 31-457): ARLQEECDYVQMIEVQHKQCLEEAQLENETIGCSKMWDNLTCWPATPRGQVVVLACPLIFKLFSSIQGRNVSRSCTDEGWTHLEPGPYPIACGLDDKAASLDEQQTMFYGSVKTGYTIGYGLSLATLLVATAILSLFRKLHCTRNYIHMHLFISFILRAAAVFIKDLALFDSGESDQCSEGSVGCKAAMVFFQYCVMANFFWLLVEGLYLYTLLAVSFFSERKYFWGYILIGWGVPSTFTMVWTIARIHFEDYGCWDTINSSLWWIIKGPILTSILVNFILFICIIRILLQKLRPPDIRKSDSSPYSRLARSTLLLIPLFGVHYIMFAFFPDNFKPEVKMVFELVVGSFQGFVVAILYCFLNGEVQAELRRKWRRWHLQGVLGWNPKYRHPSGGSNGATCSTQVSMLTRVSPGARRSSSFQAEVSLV
168 GPCRs (Homo sapiens, UniProt Q99788), sequence (Q99788 whole entry): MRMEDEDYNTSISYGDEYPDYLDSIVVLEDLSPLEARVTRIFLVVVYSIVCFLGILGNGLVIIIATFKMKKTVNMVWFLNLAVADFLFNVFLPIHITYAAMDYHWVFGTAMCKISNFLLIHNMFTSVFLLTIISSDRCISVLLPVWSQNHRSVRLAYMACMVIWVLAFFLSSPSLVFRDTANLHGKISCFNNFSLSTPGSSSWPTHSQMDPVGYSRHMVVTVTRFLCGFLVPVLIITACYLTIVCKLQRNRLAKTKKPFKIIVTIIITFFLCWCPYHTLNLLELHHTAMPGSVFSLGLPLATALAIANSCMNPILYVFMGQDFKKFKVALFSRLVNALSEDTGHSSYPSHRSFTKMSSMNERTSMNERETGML
168 GPCRs (Homo sapiens, UniProt P41597), sequence (P41597 whole entry): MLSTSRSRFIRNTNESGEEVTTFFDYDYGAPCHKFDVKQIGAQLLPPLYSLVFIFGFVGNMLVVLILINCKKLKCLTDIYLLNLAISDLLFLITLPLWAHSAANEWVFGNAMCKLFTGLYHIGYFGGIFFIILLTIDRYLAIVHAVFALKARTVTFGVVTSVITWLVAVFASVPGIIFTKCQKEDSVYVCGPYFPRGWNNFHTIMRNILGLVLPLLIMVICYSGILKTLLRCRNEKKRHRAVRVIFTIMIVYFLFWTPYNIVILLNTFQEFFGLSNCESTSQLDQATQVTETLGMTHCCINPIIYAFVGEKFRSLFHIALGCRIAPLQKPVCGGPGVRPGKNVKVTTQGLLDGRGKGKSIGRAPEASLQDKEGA
168 GPCRs (Homo sapiens, UniProt Q8TDS4), sequence (Q8TDS4 whole entry): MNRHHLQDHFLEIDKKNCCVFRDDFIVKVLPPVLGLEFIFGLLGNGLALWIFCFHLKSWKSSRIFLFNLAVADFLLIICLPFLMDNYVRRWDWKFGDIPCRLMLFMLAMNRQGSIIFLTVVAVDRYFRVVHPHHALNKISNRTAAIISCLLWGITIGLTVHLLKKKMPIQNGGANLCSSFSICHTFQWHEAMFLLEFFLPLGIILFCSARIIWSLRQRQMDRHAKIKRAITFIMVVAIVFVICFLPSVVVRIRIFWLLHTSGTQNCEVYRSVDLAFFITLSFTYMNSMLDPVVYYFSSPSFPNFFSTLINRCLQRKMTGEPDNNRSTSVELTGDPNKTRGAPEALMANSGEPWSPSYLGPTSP
168 GPCRs (Homo sapiens, UniProt P34981), sequence (P34981 whole entry): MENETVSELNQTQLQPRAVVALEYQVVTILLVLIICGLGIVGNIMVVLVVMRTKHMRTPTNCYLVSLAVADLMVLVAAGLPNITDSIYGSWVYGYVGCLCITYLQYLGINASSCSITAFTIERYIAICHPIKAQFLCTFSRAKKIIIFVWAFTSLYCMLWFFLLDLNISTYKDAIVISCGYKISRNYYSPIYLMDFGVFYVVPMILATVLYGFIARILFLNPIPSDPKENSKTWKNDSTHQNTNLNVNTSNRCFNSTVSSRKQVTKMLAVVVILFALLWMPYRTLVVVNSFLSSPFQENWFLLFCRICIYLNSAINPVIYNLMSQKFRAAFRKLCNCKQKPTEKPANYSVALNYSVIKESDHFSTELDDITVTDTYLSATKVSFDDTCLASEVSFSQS
168 GPCRs (Homo sapiens, UniProt Q9HBW0), sequence (Q9HBW0 whole entry): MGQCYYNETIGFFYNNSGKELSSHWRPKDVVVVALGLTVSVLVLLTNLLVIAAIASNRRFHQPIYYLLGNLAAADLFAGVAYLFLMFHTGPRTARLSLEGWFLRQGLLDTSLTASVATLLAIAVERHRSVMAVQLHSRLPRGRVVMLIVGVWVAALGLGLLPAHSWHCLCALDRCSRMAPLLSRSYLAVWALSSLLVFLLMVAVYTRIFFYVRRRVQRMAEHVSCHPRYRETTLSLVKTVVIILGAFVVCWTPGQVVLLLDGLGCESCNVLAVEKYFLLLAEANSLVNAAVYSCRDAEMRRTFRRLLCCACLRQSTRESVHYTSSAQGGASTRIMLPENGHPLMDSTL
168 GPCRs (Homo sapiens, UniProt P35367), sequence (P35367 whole entry): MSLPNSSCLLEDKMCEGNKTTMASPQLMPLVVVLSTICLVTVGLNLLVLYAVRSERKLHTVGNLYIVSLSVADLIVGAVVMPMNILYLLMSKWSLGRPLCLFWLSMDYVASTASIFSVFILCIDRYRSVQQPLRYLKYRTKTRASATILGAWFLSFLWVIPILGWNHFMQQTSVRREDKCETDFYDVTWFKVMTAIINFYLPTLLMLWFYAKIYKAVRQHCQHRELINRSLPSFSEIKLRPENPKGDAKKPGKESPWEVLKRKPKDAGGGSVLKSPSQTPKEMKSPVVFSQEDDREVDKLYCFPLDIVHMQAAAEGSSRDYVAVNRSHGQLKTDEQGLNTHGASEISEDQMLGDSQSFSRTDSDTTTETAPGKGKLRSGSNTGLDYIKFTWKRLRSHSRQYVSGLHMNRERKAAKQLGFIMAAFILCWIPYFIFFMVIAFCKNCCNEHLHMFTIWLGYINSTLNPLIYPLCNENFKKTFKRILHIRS

CNC(C)C(=O)c1ccc2c(c1)OCO2 (stereo not shown) [methylone, 3,4-methylenedioxy-N-methylcathinone]
activity at 10 µM (168 GPCRs [1]; FFAR1, Agonist mode, 10 uM): 4.5%
activity at 1 µM (168 GPCRs [1]; FFAR1, Agonist, 1 uM): 1.7%
activity at 1 µM (168 GPCRs [2]; 1 uM): 0%
activity at 10 µM (168 GPCRs [2]; 10 uM): -0.2%
activity at 10 µM (168 GPCRs [3]; Agonist mode, 10 uM): -0.1%
activity at 1 µM (168 GPCRs [3]; Agonist, 1 uM): 0.8%
activity at 10 µM (168 GPCRs [4]; Agonist mode, 10 uM): 0.7%
activity at 1 µM (168 GPCRs [4]; Agonist, 1 uM): -1.2%
activity at 1 µM (168 GPCRs [5]; 1 uM): -2.5%
activity at 10 µM (168 GPCRs [5]; 10 uM): 0.1%
activity at 10 µM (168 GPCRs [6]; DRD4, Agonist mode, 10 uM): 9.4%
activity at 1 µM (168 GPCRs [6]; DRD4, Agonist, 1 uM): -8%
activity at 10 µM (168 GPCRs [7]; CXCR2, Agonist mode, 10 uM): 2.6%
activity at 1 µM (168 GPCRs [7]; CXCR2, Agonist, 1 uM): -0.2%
activity at 10 µM (168 GPCRs [8]; TACR1, Agonist mode, 10 uM): -4.4%
activity at 1 µM (168 GPCRs [8]; TACR1, Agonist, 1 uM): -3.9%
activity at 10 µM (168 GPCRs [9]; CXCR7, Agonist mode, 10 uM): -0.8%
activity at 1 µM (168 GPCRs [9]; CXCR7, Agonist, 1 uM): -1.3%
activity at 1 µM (168 GPCRs [10]; 1 uM): 0.1%
activity at 10 µM (168 GPCRs [10]; 10 uM): 0.3%
activity at 10 µM (168 GPCRs [11]; VIPR1, Agonist mode, 10 uM): 0.6%
activity at 1 µM (168 GPCRs [11]; VIPR1, Agonist, 1 uM): 0.3%
activity at 10 µM (168 GPCRs [12]; Agonist mode, 10 uM): -2.2%
activity at 1 µM (168 GPCRs [12]; Agonist, 1 uM): -2%
activity at 10 µM (168 GPCRs [13]; HRH1, Agonist mode, 10 uM): 2.5%
activity at 1 µM (168 GPCRs [13]; HRH1, Agonist, 1 uM): 3%
activity at 10 µM (168 GPCRs [14]; DRD3, Agonist mode, 10 uM): 2.3%
activity at 1 µM (168 GPCRs [14]; DRD3, Agonist, 1 uM): 2.2%
activity at 1 µM (168 GPCRs [15]; 1 uM): -0.4%
activity at 10 µM (168 GPCRs [15]; 10 uM): -0.5%
activity at 10 µM (168 GPCRs [16]; GALR1, Agonist mode, 10 uM): 0.6%
activity at 1 µM (168 GPCRs [16]; GALR1, Agonist, 1 uM): 0.8%
activity at 10 µM (168 GPCRs [17]; P2RY1, Agonist mode, 10 uM): -4.1%
activity at 1 µM (168 GPCRs [17]; P2RY1, Agonist, 1 uM): 2.2%
activity at 10 µM (168 GPCRs [18]; NPBWR2, Agonist mode, 10 uM): 1.35%
activity at 1 µM (168 GPCRs [18]; NPBWR2, Agonist, 1 uM): -0.3%
activity at 10 µM (168 GPCRs [19]; PROKR2, Agonist mode, 10 uM): -0.6%
activity at 1 µM (168 GPCRs [19]; PROKR2, Agonist, 1 uM): -0.6%
activity at 10 µM (168 GPCRs [20]; Agonist mode, 10 uM): -4.3%
activity at 1 µM (168 GPCRs [20]; Agonist, 1 uM): -8.7%
activity at 1 µM (168 GPCRs [21]; 1 uM): -0.2%
activity at 10 µM (168 GPCRs [21]; 10 uM): -0.3%
activity at 1 µM (168 GPCRs [22]; HRH4, Agonist, 1 uM): 8.6%
activity at 10 µM (168 GPCRs [22]; IHRH4, Agonist mode, 10 uM): 9%
activity at 10 µM (168 GPCRs [23]; EDG4, Agonist mode, 10 uM): -2.1%
activity at 1 µM (168 GPCRs [23]; EDG4, Agonist, 1 uM): -2.2%
